Consider 4 compounds from ChEMBL document CHEMBL1201862, “PubChem BioAssay data set” (2004).

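The compound was tested at five concentrations on cells cultured in 96-well plates, with a 48-hour exposure period. At the GI50, growth is halved.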 Active and inactive are the calls of the source. No stated cut-off is given here; in the data, active = GI50 up to about 1.1 µM and inactive = higher. Bounds are passed on as bounds.

Some test systems named below: BT-549; HCC 2998; HOP-62; K562; M14; MDA-MB-231; MDA-N; NCI-H23; NCI-H460; OVCAR-4; RXF 393; SF-268; SF-539; SK-MEL-28; SN12C; SNB-75; SR; U-251; UACC-257; UO-31.
Experiment in all cases: NCI-60 cell line screen, 48 h

Regarding `Clc1nc(Cl)c(CBr)c(Cl)n1`, the GI50 was 2.17 µM (inactive) in the test on BT-549; 10.8 µM (inactive) in the test on HCC 2998; 5.04 µM (inactive) with HOP-62; 2 µM (inactive) in the test on K562; 2.91 µM (inactive) in the test with M14; 1.9 µM (inactive) with MDA-MB-231. For the same compound, the GI50 is 3.25 µM (inactive) in the test with MDA-N; 14.6 µM (inactive) with NCI-H23; 4.3 µM (inactive) in the test on NCI-H460; 6.34 µM (inactive) with OVCAR-4; 6.85 µM (inactive) in the test on RXF 393; 8.02 µM (inactive) with SF-268. In addition, the GI50 in the test on SF-539 was 2.99 µM (inactive); in the test on SK-MEL-28 it was 5.74 µM (inactive); in the test with SN12C, 2.63 µM (inactive); in the test with SNB-75, 8.83 µM (inactive); with SR, 1.74 µM (inactive); in the test on U-251 it was 4.06 µM (inactive). The GI50 in the test with UACC-257 was 15 µM (inactive); with UO-31, 3.33 µM (inactive).
Take `CCNCCCNc1c2ccccc2nc2ccccc12`: the GI50 was 1.92 µM (inactive) in the test on BT-549; 0.239 µM (active) with HCC 2998; 0.402 µM (active) in the test on HOP-62; 0.329 µM (active) with K562; 0.318 µM (active) in the test with M14; 0.612 µM (active) with MDA-MB-231. The GI50 in the test with MDA-N is 0.356 µM (active); in the test on NCI-H23, 0.446 µM (active); with NCI-H460 it was 0.196 µM (active); with OVCAR-4, 0.478 µM (active); in the test with RXF 393 it was 0.568 µM (active); in the test with SF-268 it was 0.472 µM (active). Moreover, the GI50 with SF-539 was 0.279 µM (active); in the test on SK-MEL-28, 0.401 µM (active); in the test with SN12C it was 0.429 µM (active); with SNB-75 it was 0.234 µM (active); in the test on SR, 0.285 µM (active); with U-251, 0.435 µM (active). Moreover, the GI50 in the test with UACC-257 was 0.424 µM (active); in the test on UO-31 it was 0.334 µM (active).
Take `CCO/C=C1\SC(=S)N(c2ccc(OCC)cc2)C1=O`: the GI50 was > 100 µM (inactive) in the test with BT-549; 52.5 µM (inactive) in the test on HCC 2998; > 100 µM (inactive) in the test on HOP-62; 44.6 µM (inactive) in the test with K562; 97.5 µM (inactive) with M14; > 100 µM (inactive) in the test with MDA-MB-231. For the same compound, the GI50 in the test with MDA-N is 45.2 µM (inactive); with NCI-H23, > 100 µM (inactive); with NCI-H460, > 100 µM (inactive); in the test with OVCAR-4, 57 µM (inactive); with RXF 393, 33.3 µM (inactive); in the test on SF-268, > 100 µM (inactive). Further, the GI50 is 44.9 µM (inactive) with SF-539; > 100 µM (inactive) in the test with SK-MEL-28; > 100 µM (inactive) in the test with SN12C; 18.9 µM (inactive) with SNB-75; 30.2 µM (inactive) with SR; 48 µM (inactive) with U-251. Also, the GI50 was 78.7 µM (inactive) in the test with UACC-257 and 54.5 µM (inactive) in the test with UO-31.
`FC(F)(Sc1ncc[nH]1)c1nc2ccccc2o1`: the GI50 with BT-549, in the test with HCC 2998, with HOP-62, in the test with K562, in the test on M14 and with MDA-MB-231 was > 100 µM (inactive) in each case. Besides, the GI50 with MDA-N, in the test with NCI-H23, with NCI-H460, in the test with OVCAR-4, in the test with RXF 393 and in the test with SF-268 was > 100 µM (inactive) in each case. Moreover, the GI50 in the test on SF-539, in the test with SK-MEL-28, in the test with SN12C, in the test on SNB-75, in the test with SR and in the test on U-251 was > 100 µM (inactive) throughout. Also, the GI50 in the test on UACC-257 and in the test with UO-31 was > 100 µM (inactive) in each case.
